Data reported in PubChem BioAssay AID624129 (Sanford-Burnham Center for Chemical Genomics, 2012).
Active and inactive are the calls of the source. No rule for the calls is given here.

What was measured:
Test in all cases: CXCR6 receptor antagonists, dose response, cell-based, beta-arrestin, DiscoveRx, APJ panel, uHTS hits (AID 624129)
[1] = biological target: Beta-galactosidase (Escherichia coli) (UniProt Q8VNN2); details: CXCR6 beta-arrestin (DiscoveRx) antagonist cell assay, b-galactosidase
[2] = biological target: Apelin receptor (Homo sapiens) (UniProt P35414); details: CXCR6 beta-arrestin (DiscoveRx) antagonist cell assay, APJ
[3] = biological target: C-C chemokine receptor type 6 (Homo sapiens) (UniProt P51684); details: CXCR6 beta-arrestin (DiscoveRx) antagonist cell assay
[4] = biological target: C-X-C chemokine receptor type 6 (Homo sapiens) (UniProt O00574); details: CXCR6 beta-arrestin (DiscoveRx) antagonist cell assay
C-X-C chemokine receptor type 6 (Homo sapiens), sequence (O00574 whole entry, looked up): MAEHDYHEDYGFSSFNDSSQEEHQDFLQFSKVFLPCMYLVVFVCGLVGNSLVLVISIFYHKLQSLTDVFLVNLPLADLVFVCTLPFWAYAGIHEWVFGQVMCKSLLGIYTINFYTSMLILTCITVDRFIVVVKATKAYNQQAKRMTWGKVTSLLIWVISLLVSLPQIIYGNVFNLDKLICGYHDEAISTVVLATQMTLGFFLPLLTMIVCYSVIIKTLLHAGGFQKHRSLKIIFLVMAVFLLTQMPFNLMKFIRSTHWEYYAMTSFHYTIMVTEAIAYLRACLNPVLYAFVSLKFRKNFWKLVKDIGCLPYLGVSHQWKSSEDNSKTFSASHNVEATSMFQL

[5] = dose range 1, mean IC50 across replicates
[6] = CCR6, dose range 1, mean IC50 across replicates
[7] = CXCR6, dose range 1, mean IC50 across replicates
[8] = CXCR6, run 1, dose range 2, at 80 µM (top of the series)
[9] = CXCR6, run 2, dose range 1, at 79 µM (top of the series)

Beta-galactosidase (Escherichia coli), sequence (Q8VNN2 whole entry, looked up): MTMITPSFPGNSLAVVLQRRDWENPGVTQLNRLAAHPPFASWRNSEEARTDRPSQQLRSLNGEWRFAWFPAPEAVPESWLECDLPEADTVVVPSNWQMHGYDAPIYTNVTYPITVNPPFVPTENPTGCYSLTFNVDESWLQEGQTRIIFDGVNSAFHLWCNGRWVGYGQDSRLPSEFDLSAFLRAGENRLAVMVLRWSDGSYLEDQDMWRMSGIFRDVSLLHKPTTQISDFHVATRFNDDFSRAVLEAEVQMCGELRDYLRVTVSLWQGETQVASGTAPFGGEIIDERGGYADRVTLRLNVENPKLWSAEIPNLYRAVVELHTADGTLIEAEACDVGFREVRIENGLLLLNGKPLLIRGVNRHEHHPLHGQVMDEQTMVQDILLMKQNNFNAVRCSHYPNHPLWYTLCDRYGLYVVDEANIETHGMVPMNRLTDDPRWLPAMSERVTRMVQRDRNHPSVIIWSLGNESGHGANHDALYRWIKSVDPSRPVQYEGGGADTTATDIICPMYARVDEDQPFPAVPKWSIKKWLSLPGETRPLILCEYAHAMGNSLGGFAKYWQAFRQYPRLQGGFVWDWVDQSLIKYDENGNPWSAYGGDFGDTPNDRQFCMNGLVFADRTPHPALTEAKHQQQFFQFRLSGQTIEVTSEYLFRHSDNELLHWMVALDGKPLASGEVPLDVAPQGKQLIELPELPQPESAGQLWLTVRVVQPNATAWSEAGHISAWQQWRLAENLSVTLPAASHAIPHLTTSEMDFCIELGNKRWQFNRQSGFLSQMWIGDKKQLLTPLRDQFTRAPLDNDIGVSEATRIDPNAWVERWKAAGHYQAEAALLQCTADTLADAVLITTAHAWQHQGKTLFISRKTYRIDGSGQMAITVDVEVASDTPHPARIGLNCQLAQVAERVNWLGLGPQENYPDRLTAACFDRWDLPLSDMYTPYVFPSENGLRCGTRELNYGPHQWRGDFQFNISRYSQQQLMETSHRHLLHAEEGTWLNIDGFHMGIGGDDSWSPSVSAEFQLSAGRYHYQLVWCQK

SMILES | IC50 ([1]; dose range 1) | IC50 [1, 5] [µM] | IC50 ([2]; dose range 1) [µM] | IC50 [2, 5] [µM] | IC50 ([2]; run 2, dose range 1) [µM] | IC50 ([2]; run 3, dose range 1) [µM] | IC50 ([3]; CCR6, dose range 1) [µM] | IC50 [3, 6] [µM] | IC50 ([3]; CCR6, run 2, dose range 1) [µM] | IC50 ([4]; CXCR6, dose range 1) | IC50 [4, 7] [µM] | inhibition [4, 8] [%] | IC50 ([4]; CXCR6, run 2, dose range 1) [µM] | IC50 ([4]; CXCR6, run 1, dose range 2) [µM] | IC50 ([4]; CXCR6, run 2, dose range 2) [µM] | activity value [4] | outcome ([4]; CXCR6, dose range 1) | inhibition [4, 9] [%]
CCn1c(Cl)c(C=O)s/c1=N\S(=O)(=O)c1ccccc1 | > 80 µM (inactive) | > 80 | 6.85 | 5.99 | 5.55 | 5.57 | 3.16 | 3.63 | 4.09 | 4.78 µM | 4.9 |  | 5.14 | 5.1 | 4.58 |  |  | 
O=C(/C=C/c1cccc([N+](=O)[O-])c1)c1ccc([N+](=O)[O-])o1 | > 80 µM (inactive) | > 80 |  | > 80 | > 80 | > 80 | 6.68 | 20.8 | 34.9 | inactive | 19 |  | > 80 | 7.73 | 7.58 |  |  | 
CC(=O)NC(=S)Nc1sc2c(c1C(N)=O)CCC(C)C2 (centres undefined) | > 80 µM (inactive) | > 80 |  | > 80 | > 80 | > 80 |  | > 80 | > 80 | > 80 µM (inactive) | > 80 | -35.8 | > 80 |  |  |  |  | 
CCC(=O)OCCNc1cc(Sc2nc3ccccc3s2)c2nonc2c1[N+](=O)[O-] | > 80 µM (inactive) | > 80 | 32.9 | 28 | 23.1 | > 80 | 8.93 | 8.72 | 8.5 | 8.94 µM | 8.4 |  | 8.87 | 10 | 5.77 |  |  | 
O=[N+]([O-])/C=C/c1c(Cl)cccc1Cl | > 80 µM (inactive) | > 80 |  | 14.3 | > 80 | 14.3 |  | > 80 | > 80 | > 80 µM (inactive) | > 80 | 54 | > 80 |  |  |  |  | 
COc1ccc(-c2csc(Cc3nc(O)cs3)n2)cc1 | > 80 µM (inactive) | > 80 | 4.5 | 4.96 | 5.92 | 4.47 | 2.8 | 3.45 | 4.1 | 4.12 µM | 4.09 |  | 4.68 | 3.66 | 3.91 |  |  | 
S=C(N/N=C/c1ccccc1)N1CCOCC1 | > 80 µM (inactive) | > 80 | 6.85 | 7 | 7.06 | 7.08 | 5.59 | 6.34 | 7.09 | 7.03 µM | 6.19 |  | 8.46 | 4.47 | 4.81 |  |  | 
O=C(c1nnsc1S(=O)c1ccc(Cl)cc1)N1CCOCC1 (centres undefined) | > 80 µM (inactive) | > 80 | 19 | 27.6 | 24.9 | 38.9 | 13.2 | 34.3 | 55.4 | inactive | 18.3 | 56.2 | 17.4 |  |  |  |  | 
On1ccccc1=S |  |  | 13.2 | 17.6 | 17.5 | 22.2 | 11.5 | 27 | 42.4 | inactive | 17.8 | 51.2 | 17.3 |  |  | 80 µM (inactive) |  | 
CCOc1cc(/C=C2\N=C(SCC)SC2=O)cc([N+](=O)[O-])c1OC(C)=O |  |  |  |  |  |  |  |  |  |  | 39.3 |  |  | 23.8 | 54.8 |  | inactive | 95.5
COc1ccc(/C=C2/CCC(CN3CCOCC3)C2=O)cc1 (centres undefined) |  |  |  |  |  |  |  |  |  |  | 14.7 |  |  | 14.3 | 15.2 |  | inactive | 112
CCCC/C=C1/CCC(CN(C)C)C1=O (centres undefined) |  |  |  |  |  |  |  |  |  |  | 22.6 |  |  | 22.3 | 22.8 |  | inactive | 110
COC(=O)CSc1[nH]c2ccc(Br)cc2c1[N+](=O)[O-] |  |  |  |  |  |  |  |  |  |  | 42.2 |  |  | 42.2 | > 79 |  | inactive | 23.1
CCCNC(=O)c1nnsc1S(=O)c1ccc(Cl)cc1 (centres undefined) |  |  |  |  |  |  |  |  |  |  | 11.7 |  |  | 11.8 | 11.7 |  | inactive | 112
CCCC(=O)OCCNc1cc(SCc2ccco2)c2nonc2c1[N+](=O)[O-] |  |  |  |  |  |  |  |  |  |  | 12.2 |  |  | 11.3 | 13.1 |  | inactive | 103
COc1ccc(-c2nn(C)c(=O)c3ccccc23)cc1NC(=O)Cn1nc(C)c2ccccc2c1=O |  |  |  |  |  |  |  |  |  |  | 34.5 |  |  | 21.8 | 47.2 |  | inactive | 72.1

Now from value to molecule:

IC50 ([1]; dose range 1) | IC50 [1, 5] [µM] | IC50 ([2]; dose range 1) [µM] | IC50 [2, 5] [µM] | IC50 ([2]; run 2, dose range 1) [µM] | IC50 ([2]; run 3, dose range 1) [µM] | IC50 ([3]; CCR6, dose range 1) [µM] | IC50 [3, 6] [µM] | IC50 ([3]; CCR6, run 2, dose range 1) [µM] | IC50 ([4]; CXCR6, dose range 1) | IC50 [4, 7] [µM] | inhibition [4, 8] [%] | IC50 ([4]; CXCR6, run 2, dose range 1) [µM] | IC50 ([4]; CXCR6, run 1, dose range 2) [µM] | IC50 ([4]; CXCR6, run 2, dose range 2) [µM] | activity value [4] | outcome ([4]; CXCR6, dose range 1) | inhibition [4, 9] [%] | SMILES
> 80 µM (inactive) | > 80 | 1.05 | 2.38 | 4.56 | 1.52 | 1.18 | 1.55 | 1.92 | 1.08 µM | 1.44 | 42.3 | 1.79 |  |  |  |  |  | Cc1ccc(C(=O)Sc2cccccc2=O)cc1
> 80 µM (inactive) | > 80 | 1.12 | 1.41 | 1.66 | 1.45 | 1.26 | 1.53 | 1.8 | 1.32 µM | 1.18 |  | 1.79 | 0.9 | 0.719 |  |  |  | C/C(=N/NC(=O)c1ccc(C(C)(C)C)cc1)c1ccccn1
> 80 µM (inactive) | > 80 | 4.18 | 4.46 | 5.15 | 4.05 | 4.35 | 4.64 | 4.93 | 4.5 µM | 4.01 |  | 5.13 | 3.07 | 3.34 |  |  |  | O=C(N/N=C(\c1ccccc1)c1cccnc1)c1cccc(F)c1
> 80 µM (inactive) | > 80 |  | > 80 | > 80 | > 80 | 28.6 | 28.6 | > 80 | inactive | 22.4 |  | > 80 | 6.94 | 12 |  |  |  | Cc1cnc(C(=O)Nc2cccc3cccnc23)cn1
> 80 µM (inactive) | > 80 | 12.7 | 11.7 | 11.9 | 10.5 | 8.58 | 8.32 | 8.05 | 9.69 µM | 9.93 |  | 10.4 | 9.44 | 10.2 |  |  |  | O=C(Nc1ccccc1Cl)/C(Cl)=C(\Cl)S(=O)c1ccccc1 (centres undefined)
28.5 µM | 28.5 | 17 | 17.9 | 21.6 | 15.1 | 16.8 | 18.6 | 20.5 | inactive | 18.1 |  | 22.9 | 10.2 | 10.6 |  |  |  | Oc1c(Br)cc(Br)cc1C=NCc1ccccc1
> 80 µM (inactive) | > 80 | 47.9 | 48.1 | 47.7 | 48.7 | 37.3 | 34.1 | 30.8 | inactive | 30.8 | 123 | 27.2 |  |  |  |  |  | CN(C)S(=O)(=O)c1cccc(NC(=O)CSc2cccc3cccnc23)c1
> 80 µM (inactive) | > 80 | 1.82 | 2.39 | 2.48 | 2.86 | 2.06 | 2.38 | 2.71 | 2.56 µM | 1.99 |  | 2.6 | 1.65 | 1.14 |  |  |  | COc1ccc(C(=O)N/N=C(\C)c2ccccn2)cc1OC
> 80 µM (inactive) | > 80 | 0.853 | 1.01 | 1.4 | 0.79 | 0.987 | 1.19 | 1.4 | 1.55 µM | 1.14 |  | 1.37 | 0.861 | 0.779 |  |  |  | C/C(=N\NC(=O)c1ccc(F)cc1)c1ccccn1
 |  |  |  |  |  |  |  |  |  | 17.4 |  |  | 16.4 | 18.4 |  | inactive | 86.6 | COc1ccc(-c2c(C(=O)c3ccccc3)[nH]c(N)c2C(=O)c2ccc(Br)cc2)cc1OC
 |  |  |  |  |  |  |  |  |  | 14.4 |  |  | 17.9 | 10.9 |  | inactive | 99.5 | CCOC(=O)C1CCCN(c2c(C(=O)c3ccccc3)cnc3ccc(OC)cc23)C1 (centres undefined)
